Measurements taken from US11623923B2, “Uracil compound as c-MET/AXL inhibitor” (MEDSHINE DISCOVERY, INC., priority 2017, dated 2023).
Where two headings read alike, the source gives them in different places. One block for each compound: values may come before it.

Assays:
[1] = tested on: Hs746t gastric cancer cells; test: Drug efficacy in a model with subcutaneous xenograft tumor of Hs746t gastric cancer cells; type: in vivo, BALB/c nude mice; conditions: for Tumor volume (Day 0): Day 0, Mean ± SEM; for Tumor volume (Day 20): Day 20, Mean ± SEM
Protocol: Assay Example 4: Assay of Drug Efficacy in a Model with Subcutaneous Xenograft Tumor of Hs746t Gastric Cancer Cells
Human gastric cancer Hs746t cells were cultured in vitro in monolayer. The culture conditions were DMEM medium plus 10% fetal bovine serum, 100 U/mL penicillin and 100 U/mL streptomycin, 37° C., 5% CO2 incubator. The passaging was carried out by conventional digestion with trypsin-EDTA twice a week. When the cell saturation was 80%-90%, and the number met the requirements, the cells were collected, counted, and inoculated.
(§1) BALB/c nude mice, male, 6-8 weeks old, weighted 18-22 grams.
0.2 mL (2×10^6, cells:Matrigel=1:1) of HS 746T cells were subcutaneously inoculated on the right back of each mouse. When the average tumor volume reached about 100-150 mm^3, administration to each group was started.
(§2) Assay index: The assay index is to investigate whether tumor growth is inhibited, delayed or cured. Tumor diameter was measured twice a week with a vernier caliper. The calculation formula of tumor volume is: V=0.5a×b^2, wherein a and b represent the long and short diameters of the tumor, respectively. The anti-tumor efficacy (TGI) of the compound was evaluated by T-C (day) and T/C (%).
Assay results: See Table 4.

[2] = tested on: MKN45 gastric cancer cell line; test: Assay of inhibitory effect on cell proliferation (CellTiter-Glo); type: cell-based; conditions: Homo sapiens, MKN-45, 72 h, read-out: MKN45 cell IC50
Description: Assay Example 2: Assay of Inhibitory Effect on Cell Proliferation
1. cell culture: DMEM medium, fetal bovine serum, DPBS
2. cell line: MKN45 gastric cancer cell line
3. detection reagent: live cell detection kit CellTiter-Glo
4. other main materials and reagents: compound dilution plate, middle plate, detection plate, DMSO
The content of ATP directly reflects the number and state of cells. By quantitation of ATP, the number of living cells can be detected. The living cell detection kit contains luciferase and its substrate. Through the participation of ATP, the luciferase can catalyze the substrate to emit a stable light signal. The number of ATP in the cells was determined by detecting the intensity of the signal. The light signal was directly proportional to the number of ATP in the cells, while ATP was positively correlated with the number of living cells, so that the proliferation of cells can be detected. The test plate was analyzed using Envision from PE Inc.
1. Preparation of the Cell Plate
The MKN45 cells were seeded into a 384-well plate with 200 cells per well. The cell plate was placed in a carbon dioxide incubator and incubated overnight.
2. Preparation of Compounds
Compounds were subject to a 5-fold serial dilution with Echo to obtain nine concentrations, in duplicate.
3. Treatment of Cells with Compounds
The compounds were transferred to the cell plate at an initial concentration of […]. The cell plate was placed in a carbon dioxide incubator and incubated for three days.
A Promega CellTiter-Glo reagent was added to the cell plate and incubated at room temperature for 10 minutes to stabilize the luminescence signal. A PerkinElmer Envision multi-label analyzer was used for reading.

[3] = tested on: MKN45 gastric cancer cells; test: Drug efficacy in a model with subcutaneous xenograft tumor of MKN45 gastric cancer cells; type: in vivo, BALB/c nude mice; conditions: day 14 after administration; for Tumor volume (Day 14): Mean ± SEM
Protocol: Assay Example 3: Assay of Drug Efficacy in a Model with Subcutaneous Xenograft Tumor of MKN45 Gastric Cancer Cells
MKN45 cells were cultured in vitro in monolayer. The culture conditions were RPMI1640 medium plus 10% heat-inactivated fetal bovine serum, 1% penicillin-streptomycin, 37° C., and 5% CO2. The passaging was carried out by conventional digestion with trypsin-EDTA twice a week. When the cells were in the exponential growth phase, the cells were collected, counted, and inoculated.
as §1
0.2 ml of a suspension containing 5×10^6 MKN45 cells was inoculated subcutaneously on the right back of each mouse. When the average volume of the tumor reached about 160 mm^3, administration to each group was started.
as §2, with “index: the” for “index: The”, “whether the” for “whether”
Assay results: See Table 3.

[4] = tested on: MHCC97H cell; conditions: read-out: MHCC97H cell IC50; cited from earlier work
[5] = three days incubation, CellTiter-Glo

SMILES: Nc1nccc(Oc2ccc(NC(=O)c3cn(CC4CC4)c(=O)n(-c4ccc(F)cc4)c3=O)cc2F)c1Cl [Example 5]
TGI ([1]; 4.5 mpk): 104.43% | Tumor volume (Day 0) ([1]; 4.5 mpk): 126 ± 10 mm^3 | T/C (Day 20) ([1]; 4.5 mpk): 0.78% | Tumor volume (Day 20) ([1]; 4.5 mpk): 20 ± 8 mm^3 | TGI ([1]; 9 mpk): 105.01% | Tumor volume (Day 0) ([1]; 9 mpk): 127 ± 10 mm^3 | T/C (Day 20) ([1]; 9 mpk): 0.00% | Tumor volume (Day 20) ([1]; 9 mpk): 0 ± 0 mm^3 | IC50 [2]: 11 nM | T/C [3]: 15.3% | TGI [3]: 96.9% | Tumor volume (Day 14) [3]: 196 ± 17 mm^3

SMILES: CN(C)C(=O)Nc1cc(Oc2ccc(NC(=O)c3cn(CC4CC4)c(=O)n(-c4ccc(F)cc4)c3=O)cc2F)ccn1 [Example 17]
TGI ([1]; 1.5 mpk): 74.16% | Tumor volume (Day 0) ([1]; 1.5 mpk): 127 ± 12 mm^3 | T/C (Day 20) ([1]; 1.5 mpk): 30.68% | Tumor volume (Day 20) ([1]; 1.5 mpk): 780 ± 195 mm^3 | TGI ([1]; 4.5 mpk): 104.82% | Tumor volume (Day 0) ([1]; 4.5 mpk): 127 ± 13 mm^3 | T/C (Day 20) ([1]; 4.5 mpk): 0.15% | Tumor volume (Day 20) ([1]; 4.5 mpk): 4 ± 2 mm^3 | TGI ([1]; 9 mpk): 105.02% | Tumor volume (Day 0) ([1]; 9 mpk): 127 ± 9 mm^3 | T/C (Day 20) ([1]; 9 mpk): 0.00% | Tumor volume (Day 20) ([1]; 9 mpk): 0 ± 0 mm^3

SMILES: Cc1[nH]c(=O)n(-c2ccc(F)cc2)c(=O)c1C(=O)Nc1ccc(Oc2ccnc(N)c2Cl)c(F)c1 [Example 11]
IC50 [2]: 240 nM

IC50 [2, 5]: 436 nM
SMILES: CCOc1ccn(-c2ccc(F)cc2)c(=O)c1C(=O)Nc1ccc(Oc2ccnc(N)c2Cl)c(F)c1 [BMS777607, reference compound]
TGI ([1]; 4.5 mpk): 27.61% | Tumor volume (Day 0) ([1]; 4.5 mpk): 127 ± 11 mm^3 | T/C (Day 20) ([1]; 4.5 mpk): 73.58% | Tumor volume (Day 20) ([1]; 4.5 mpk): 1872 ± 355 mm^3

IC50 [2, 5]: 374 nM
SMILES: CC(C)Cn1cc(C(=O)Nc2ccc(Oc3ccnc(N)c3Cl)c(F)c2)c(=O)n(-c2ccc(F)cc2)c1=O [Example 8]

SMILES: N#Cc1c(Oc2ccc(NC(=O)c3cn(CC4CC4)c(=O)n(-c4ccc(F)cc4)c3=O)cc2F)ccnc1N [Example 14]
IC50 [2]: 30 nM

SMILES: NC(=O)Nc1cc(Oc2ccc(NC(=O)c3cn(CC4CC4)c(=O)n(-c4ccc(F)cc4)c3=O)cc2F)ccn1 [Example 16]
IC50 [2]: 50.7 nM

SMILES: CN1CCC(COc2cnc(-c3cccc(Cn4nc(-c5cccc(C#N)c5)ccc4=O)c3)nc2)CC1 [Tepotinib]
IC50 [4]: 6.2 nM

IC50 [2, 5]: 27 nM
SMILES: Nc1nccc(Oc2ccc(NC(=O)c3cn(CC4CC4(F)F)c(=O)n(-c4ccc(F)cc4)c3=O)cc2F)c1Cl (stereo not shown) [Example 3]

SMILES: CC(C)n1cc(C(=O)Nc2ccc(Oc3ccnc(N)c3Cl)c(F)c2)c(=O)n(-c2ccc(F)cc2)c1=O [Example 1]
IC50 [2]: 54 nM | T/C [3]: 16.5% | TGI [3]: 95.1% | Tumor volume (Day 14) [3]: 218 ± 31 mm^3

SMILES: C=CCn1cc(C(=O)Nc2ccc(Oc3ccnc(N)c3Cl)c(F)c2)c(=O)n(-c2ccc(F)cc2)c1=O [Example 2]
IC50 [2]: 78 nM

SMILES: O=C(Nc1ccc(Oc2ccnc(NC(=O)N3CCC3)c2)c(F)c1)c1cn(CC2CC2)c(=O)n(-c2ccc(F)cc2)c1=O [Example 18]
IC50 [2]: 12.1 nM

SMILES: O=C(Nc1ccc(Oc2ccnc(NC(=O)N3CCOCC3)c2)c(F)c1)c1cn(CC2CC2)c(=O)n(-c2ccc(F)cc2)c1=O [Example 13]
IC50 [2]: 38 nM

SMILES: O=C(Nc1ccc(Oc2ccnc(NC(=O)N3CCCC3)c2)c(F)c1)c1cn(CC2CC2)c(=O)n(-c2ccc(F)cc2)c1=O [Example 20]
IC50 [2]: 29.1 nM

IC50 [2, 5]: 315 nM
SMILES: Nc1nccc(Oc2ccc(NC(=O)c3c4n(c(=O)n(-c5ccc(F)cc5)c3=O)CCC4)cc2F)c1Cl [Example 12]

SMILES: Cc1ccc(C(=O)Nc2ccc(Oc3cc4cnn(C)c4cc3-c3cn[nH]c3)c(F)c2)c(=O)n1-c1ccc(F)cc1 [LY2801653, reference compound]
TGI ([1]; 4.5 mpk): 101.62% | Tumor volume (Day 0) ([1]; 4.5 mpk): 127 ± 12 mm^3 | T/C (Day 20) ([1]; 4.5 mpk): 3.45% | Tumor volume (Day 20) ([1]; 4.5 mpk): 88 ± 13 mm^3

SMILES: Nc1nccc(Oc2ccc(NC(=O)c3cn(CC(F)F)c(=O)n(-c4ccc(F)cc4)c3=O)cc2F)c1Cl [Example 9]
IC50 [2]: 365 nM
